Source: ChEMBL document CHEMBL1134241, “Spatial requirements of the antagonist binding site of the NK2 receptor” (Bioorg Med Chem Lett, 2001)

Each compound was assayed against T1, Substance-K receptor (Homo sapiens, UniProt P21452) (assay: Binding affinity for heterologously expressed human Tachykinin receptor 2 using [3H]-SR- 48968 as radioligand).
T1 sequence (P21452 whole entry): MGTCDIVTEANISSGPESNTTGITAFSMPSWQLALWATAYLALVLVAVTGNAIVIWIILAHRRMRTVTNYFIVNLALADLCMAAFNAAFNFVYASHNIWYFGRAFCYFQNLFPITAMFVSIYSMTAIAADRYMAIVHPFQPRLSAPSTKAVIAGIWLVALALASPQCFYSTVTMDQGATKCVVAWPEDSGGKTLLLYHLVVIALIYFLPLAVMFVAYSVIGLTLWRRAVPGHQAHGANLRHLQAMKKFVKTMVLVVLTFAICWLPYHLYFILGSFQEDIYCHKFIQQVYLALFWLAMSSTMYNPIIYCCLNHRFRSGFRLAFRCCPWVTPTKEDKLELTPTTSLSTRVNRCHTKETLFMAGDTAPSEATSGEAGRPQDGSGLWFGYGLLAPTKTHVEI

Row | IC50 | Compound
1 | 25300 nM | [O-][S+](C[C@]1(O)CCN2CCc3c([nH]c4ccc(F)cc34)[C@H]2C1)c1ccccc1 (mixture of isomers)
2 | 6 nM | CN(C)C(=O)NC1(c2ccccc2)CCN(CC[C@@]2(c3ccc(F)c(F)c3)CN(C(=O)c3ccccc3)CCO2)CC1 (racemic)
3 | 111 nM | [O-][S+](c1ccccc1)C(c1ccccc1)C1(O)CCN(CCc2c[nH]c3ccc(F)cc23)CC1 (racemic)

Further lines, the compound ahead of its results:

Row | Compound | IC50
4 | COC1(C[S+]([O-])c2ccccc2)CCN(CCc2c[nH]c3ccc(F)cc23)CC1 (racemic) | 2.5 nM
5 | [O-][S+](CC1(O)CCN(CCc2c[nH]c3ccc(F)cc23)CC1)c1ccc2ccccc2c1 (racemic) | 13.4 nM
6 | CN(C[C@@H](CCN1CCC(NC(=O)c2ccccc2)(c2ccccc2)CC1)c1ccc(Cl)c(Cl)c1)C(=O)c1ccccc1 (racemic) | 14.3 nM
7 | [O-][S+](CC1(O)CCN(CCc2c[nH]c3ccc(F)cc23)CC1)c1ccccc1 (racemic) [4-BENZENESULFINYLMETHYL-1-[2-(5-FLUORO-1H-INDOL-3-YL)-ETHYL]-PIPERIDIN-4-OL (STRUCTURAL MIX)] | 22 nM
